Laboratory results published in the OligoGym collection.
Bases are written 5' to 3'; sugars and linkages follow in the same order, as letters with counts (s phosphorothioate, o phosphodiester; PS: all linkages phosphorothioate). The collection does not say whether C is 5-methylated. l = locked nucleic acid (LNA); d = 2'-deoxy (DNA)

target: Tau; assay: rat primary cortical neurons, FLIPR, 25 uM ASO

Sequence | calcium oscillation score
GTCTGGCATGGGCAC (sugars l3 d9 l3, PS) | 62.9 % of control
ACTTAAATTTATTTTCTTTT (sugars l4 d12 l4, PS) | 55.8 % of control
TCATCACCAAGTCCCAA (sugars l2 d12 l3, PS) | 61.7 % of control
AATTCACACAACAAACTAT (sugars l4 d11 l4, PS) | 74.5 % of control
CATCACTTCGAACTCC (sugars l3 d10 l3, PS) | ≥ 200 % of control
CAACTGGTTTGTAGAC (sugars l3 d10 l3, PS) | 42.9 % of control
GCTTAATAAACACCCTT (sugars l2 d11 l4, PS) | 68.5 % of control
ATTTAGTTACTCATCC (sugars l4 d8 l4, PS) | 72.6 % of control
CAGAACTAAATTTACC (sugars l4 d8 l4, PS) | 51.1 % of control
ATTTCCAAATTCACTTTTAC (sugars llldlddddddddddldlll, PS) | 135 % of control
CTTTATTTCCAAATTCAC (sugars l4 d10 l4, PS) | 110 % of control
AAGCAATAGCAAACA (sugars l3 d9 l3, PS) | 142 % of control
ATTCCTTTCAATGACCA (sugars l4 d11 l2, PS) | 49.7 % of control
AACTGGTTAGCCCTAA (sugars l3 d10 l3, PS) | 31.3 % of control
CATCACCAAGTCCCAAA (sugars l2 d11 l4, PS) | 81 % of control
CCACCTCCTGGTTTAT (sugars l3 d10 l3, PS) | 104 % of control
ATACTCAAATTCTTCCTT (sugars l4 d11 l3, PS) | 70.9 % of control
CACCCACTTTCCTAATTCCC (sugars l1 d17 l2, PS) | 55.1 % of control
ACCCCGAATTTACACC (sugars l3 d11 l2, PS) | 97.5 % of control
TTAATTATCTGCACCTT (sugars l3 d10 l4, PS) | 33.9 % of control
CCCACATTATATCAGTA (sugars l2 d12 l3, PS) | 80.7 % of control
TACCCCATTTTTGACA (sugars l3 d11 l2, PS) | 60.9 % of control
TTCTTCATTCTTGCCC (sugars l2 d12 l2, PS) | 15.5 % of control
CAGACCATCAATTTCCCT (sugars l2 d14 l2, PS) | 72.5 % of control
AACTCATCAACACCTTTTAA (sugars l3 d13 l4, PS) | 70.8 % of control
CTGTCACTATCACTTCA (sugars l2 d11 l4, PS) | 75.3 % of control

Sequence | calcium oscillation score
TGGTTTGTAGACTATTTGCA (sugars l3 d14 l3, PS) | 0 % of control
GTGTTTGATATTATCC (sugars l3 d10 l3, PS) | 46.7 % of control
TGACCTCAACTCTACC (sugars l4 d10 l2, PS) | 68.5 % of control
ACCAATTAACCGAACTGCGA (sugars l3 d14 l3, PS) | 22.6 % of control
CAGATTTAATTCTCACT (sugars l4 d9 l4, PS) | 77.7 % of control
GTAACCAACTTTCATCT (sugars l2 d12 l3, PS) | 78.7 % of control
GTTAACTCATCAACAC (sugars l4 d9 l3, PS) | 59 % of control
TGTAGACTATTTGCACACTG (sugars l3 d14 l3, PS) | 7.41 % of control
CCTTAATTTCACCCTC (sugars l3 d10 l3, PS) | 132 % of control
TGTAGACTATTTGCAC (sugars l3 d10 l3, PS) | 93.3 % of control
GAGACCACATTATCATCCAT (sugars l3 d14 l3, PS) | 52.4 % of control
AAACTCATTTACCAATTATC (sugars l4 d12 l4, PS) | 56.8 % of control
TTATTTCCAAATTCACTTTT (sugars lllddldddddddddlldll, PS) | 114 % of control
CTTTATTTCCAAATTCACT (sugars l3 d11 l5, PS) | 121 % of control
TCCCAACTCTTTGAACAC (sugars l3 d13 l2, PS) | 83.5 % of control
ATTTCCAAATTCACTTTTAC (sugars l2 d16 l2, PS) | ≥ 200 % of control
TTCCACTACAAGCTCCA (sugars l3 d12 l2, PS) | 53.9 % of control
CGTGGGTGATATTGTCCAGG (sugars l3 d14 l3, PS) | 0 % of control
CTCAAGAAATGGTTTGCTAC (sugars l3 d14 l3, PS) | 23.8 % of control
CACCTTACCACTTTCA (sugars l3 d10 l3, PS) | 115 % of control
ACACCTCGTCAGCTAGCGTG (sugars l3 d14 l3, PS) | 0 % of control
TGATATTGTCCAGGGACCCA (sugars l3 d14 l3, PS) | 0 % of control
CCTCACTTTACACATTAAAT (sugars l4 d14 l2, PS) | 64.1 % of control
CAGCTAGCGTGGCGAG (sugars l3 d10 l3, PS) | 0 % of control
GGTTTGTAGACTATTTGCAC (sugars l3 d14 l3, PS) | 0 % of control
AAGCCCATTTACAATTC (sugars l4 d10 l3, PS) | 81.1 % of control

Sequence | calcium oscillation score
CCATTAATTTAGCCAA (sugars l3 d9 l4, PS) | 87.2 % of control
GCTTTCCAATTCCCCAT (sugars l2 d12 l3, PS) | 94.5 % of control
GGGACCCAATCTTCGACTGG (sugars l3 d14 l3, PS) | 0 % of control
AGTGGAGCCGATCTTG (sugars l3 d10 l3, PS) | 0 % of control
ATCTTATTGCTTTCCAA (sugars l4 d10 l3, PS) | 75.3 % of control
CCACTCCATGTCAATC (sugars l4 d10 l2, PS) | 69.3 % of control
CCAACTTTCATCTACTTTTC (sugars l2 d16 l2, PS) | 99.7 % of control
GCTCCATATTCCTGCCCAAG (sugars l3 d14 l3, PS) | 34.2 % of control
ATTGCAACTTTAACTCC (sugars l3 d10 l4, PS) | 62.9 % of control
GGCCACCTCCTGGTTTATGA (sugars l3 d14 l3, PS) | 0 % of control
TTCCTCAGAAGGCATT (sugars l3 d10 l3, PS) | 36.9 % of control
TTTGCTTCACACACCAC (sugars l2 d12 l3, PS) | 89 % of control
TGTCCAAACTTTTACT (sugars l4 d8 l4, PS) | 60.8 % of control
TCCATTTTCTGACTCTA (sugars l3 d12 l2, PS) | 40.4 % of control
CAAACAATCCATTTATATT (sugars l4 d11 l4, PS) | 69.3 % of control
GGCGAGTCTACCATGTCGAT (sugars l3 d14 l3, PS) | 91.5 % of control
CCTTTGAAAGTCCTTT (sugars l4 d8 l4, PS) | 106 % of control
ATGATTGTGGGCTTA (sugars l3 d9 l3, PS) | 7.83 % of control
ACTTTATTTCCAAATTCACT (sugars l4 d11 l5, PS) | 115 % of control
TATCTGCAAACTCAAC (sugars l4 d8 l4, PS) | 98.9 % of control
TCTTTATTAACACTCCAC (sugars l2 d12 l4, PS) | 64.6 % of control
TTACCAATTATCTTTAAATT (sugars l4 d12 l4, PS) | 61.9 % of control
CCCTTGATCATATTTGTGGC (sugars l3 d14 l3, PS) | 35.7 % of control
TCATTTTTTATTCATAACTT (sugars l4 d12 l4, PS) | 62.3 % of control
CTTCTAGTTATACAGTTGGC (sugars l3 d14 l3, PS) | 40.5 % of control
TCATCTTTTCTAGAACCC (sugars l3 d13 l2, PS) | 48.4 % of control
